# Experimental data as given in a melting point compilation (Tetko et al.).
row,SMILES,melting point [°C]
1,Cc1cc(NC(=O)OCC(F)(F)F)n(C)n1,100 to 102
2,CCN(CC)C(=O)c1ccc(O)cc1,120 to 122
3,COC(=O)Nc1cccc(O)c1,95 to 97
4,O=C(Cc1nc2ccccc2[nH]1)C(F)(F)F,249 to 251
5,Cc1c(C(=O)O)cc(S(N)(=O)=O)cc1[N+](=O)[O-],172 to 174
6,CCc1nc(COc2ccc(C(=O)OC)cc2)no1,44 to 46
7,Nc1noc(-c2ccccc2)n1,164 to 166
8,Cc1cc(F)cc2c(Cl)c(C#N)cnc12,137 to 139
9,Cc1ccc(Cl)c2ccc(N)nc12,104 to 106
10,N#Cc1cccc(Oc2ccc(Cl)cc2)n1,86 to 88
11,O=C(O)C1CCCCN1S(=O)(=O)c1ccc(Br)cc1 (configuration not stated),133 to 135
12,CN1Cc2ccccc2NC1=O,200 to 203
13,COc1ccc(C)cc1/C=C/C(=O)O,141 to 143
14,Cc1ccc(-c2csc(NCCCC(=O)O)n2)s1,110 to 112
15,COc1cc(C#N)ccc1OC(C)C,71 to 73
16,NCc1cc2c([nH]c1=O)CCC2,129 to 131
17,Cc1cc([N+](=O)[O-])ccc1NC(=O)CCCl,147 to 149
18,CC(C)Oc1cncc(C(=O)O)c1,172 to 174
19,Cc1nc(S)c2c(C)c(C)sc2n1,193 to 195
20,O=C(CCl)Nc1nc(-c2ccc(F)cc2)cs1,142 to 144
21,CC(C)Oc1ccc(C(=O)O)cn1,122 to 124
22,O=C(O)Cc1ccc(Cl)cc1Br,126 to 128
23,CCN(CC)S(=O)(=O)c1ccc(N2CCC(C(=O)O)CC2)c([N+](=O)[O-])c1,204 to 206
24,Clc1cc(SCc2ccccc2)ccn1,61 to 63

row,SMILES,melting point [°C]
1,Cc1ccc(N)cc1S(=O)(=O)NC1CC1,131 to 133
2,CCOC(=O)c1c(N)nn2cc[nH]c12,168 to 170
3,Cc1ccc(-n2c(S)nc3ccccc32)c(C)c1,192 to 194
4,Cc1cc(CC(=O)O)c(C)n1-c1ccc(Cl)cc1,118 to 120
5,O=C1CCC(O)(c2ccccc2)CC1,126 to 128
6,O=S(=O)(Cl)c1cnn(C2CCOCC2)c1,59 to 61
7,ClCc1nnc(-c2ccccc2Br)o1,104 to 107
8,O=C(O)CNC(=O)c1cc2c(s1)CCC2,207 to 209
9,CC(C)(C)OC(=O)c1cc(C(=O)O)nn1-c1ccccc1,259 to 261
10,COc1ccc(C)cc1Nc1nnc(S)s1,210 to 212
11,O=C1COCC(=O)N1,141 to 143
12,COC(=O)c1c(C)n(C)c2ccc(O)cc12,223 to 225
13,CCOC(C)c1nc(C(=O)O)cs1 (configuration not stated),61 to 63
14,O=C(O)c1n[nH]c(=O)c2ccccc12,230 to 232
15,N#Cc1ccccc1OCC(=O)O,182 to 184
16,COc1ccc(-c2ccc(C=O)o2)c([N+](=O)[O-])c1,107 to 109
17,NC1(C(=O)O)CCCCC1,300 to 302
18,CCOC(=O)c1csc(Cc2ccc(NC(=O)OC(C)(C)C)cc2)n1,135 to 137
19,O=C(c1cccnc1)c1ccc2c(c1)CCO2,108 to 110
20,CC(NC(=O)OCC(F)(F)F)c1nncn1C (configuration not stated),103 to 105
21,O=Cc1ccc(-c2ccc(F)cc2)o1,79 to 81
22,CCOC(=O)c1cnn(CCC#N)c1N,109 to 111
23,Nc1nnc(-c2cccc(Br)c2)[nH]1,219 to 221
24,COC(=O)c1cc(S(=O)(=O)Cl)c(Br)cc1F,105 to 107

row,SMILES,melting point [°C]
1,O=C(O)c1cc(-c2ccc(Cl)cc2)on1,185 to 187
2,O=C(O)C1CCCN1C(=O)Nc1ccccc1 (configuration not stated),161 to 163
3,CCc1nc(NC(=O)CCl)sc1C,124 to 126
4,Cc1nn(-c2ccccc2)c(N2CCCCC2)c1C=O,75 to 77
5,CC(C)(c1cc(N)on1)S(C)(=O)=O,179 to 181
6,CC(C)COC(=O)Nc1cccc(N)c1,92 to 94
7,CS(=O)(=O)CC1(CC(=O)O)CC1,89 to 91
8,Cc1cc(/C=C/C(=O)O)c(C)n1-c1nccs1,160 to 162
9,Cc1c(N)cccc1C(=O)N1CCOCC1,106 to 108
10,COCCCn1c(S)nc2ccccc2c1=O,180 to 182
11,CCOC(=O)c1ccc(N)c(O)c1,91 to 93
12,COCc1cc(Cl)n2ncnc2n1,104 to 106
13,Clc1ccc(Br)cc1CBr,71 to 73
14,COc1ncc(Br)cc1CC#N,39 to 41
15,CCOC(=O)c1cc2c(C)cc(C)cc2[nH]1,119 to 121
16,Cn1cc(S(N)(=O)=O)cc1C(=O)O,202 to 204
17,Brc1cnc2nc3ccccc3n2c1,269 to 271
18,O=S(=O)(Nc1cn[nH]c1)c1ccccc1F,186 to 188
19,COc1ccc(-c2noc(CCl)n2)cc1OC,101 to 103
20,N#Cc1c(CCl)cn2ccccc12,143 to 145
21,O=C(CBr)c1c[nH]c2ncccc12,209 to 211
22,c1ccc(CN2CCN(Cc3ccccc3)CC2)cc1,89 to 91
23,CSC(=NS(C)(=O)=O)SC,88 to 90
24,COc1ccc(-c2ccc(CCC(=O)O)o2)cc1,142 to 144
